Consider 3 compounds from patent US20220395553A1, “CXCR4 ANTAGONIST PEPTIDES” (COHBAR, INC., priority 2019, published 2022).

In assay [1] the target is T1, human CXCR4 (Homo sapiens, UniProt P61073). Kind of assay: IC50 for inhibition of β-Arrestin recruitment (Example 19). Type of assay: cell-based. Also noted: host or cells: C2C12 (mouse myoblast) CXCR4 β-Arrestin PathHunter cell line. The text has this:
C2C12 CXCR4 β-Arrestin cells were seed onto 384-well plates in standard medium.

The target in assay [2] is T1, human CXCR4. Description: Inhibition of β-Arrestin recruitment, single concentration (Example 18). In kind it is cell-based. Further details: host or cells: C2C12 (mouse myoblast) CXCR4 β-Arrestin PathHunter cell line. The note with it: peptide 1 μM, […] CXCL12 (EC80), C2C12 CXCR4 β-Arrestin cells. The protocol: Peptides were initially prepared as 1 mM stock in DMSO and tested at a final concentration of 1 μM (0.1% DMSO). C2C12 CXCR4 β-Arrestin cells were seeded onto 384-well plates in standard medium. After overnight culture, the medium was replaced with buffer containing 1 μM peptide and pre-incubated for 30 min at 37° C. […] At the end of the 90 min incubation period, β-Arrestin recruitment in response to various treatments was quantified using a chemiluminescent complementation reporter assay to measure association of tagged human […] (ProLink tag) and tagged β-Arrestin (Enzyme Acceptor tag).
In general terms: Activated receptors often draw arrestin, which recruitment assays turn into a signal.

Assay [3] concerns the target T1, human CXCR4. Description: CXCR4/CXCL12 binding, HTRF format, single concentration (Example 23). Also noted: host or cells: HEK293 (Tag-lite CXCR4 cells, frozen aliquots, transient expression). The note with it: 15 nM CXCR4R fluorescent probe, 3 hours, HEK293 Tag-lite CXCR4 cells. The method, boiled down:
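Tag-lite CXCR4 cells were exposed to peptide at 400 nM final with 15 nM (EC80) fluorescent CXCR4 probe for 3 h at room temperature. HTRF was read, and the 665/620 nm ratio ×10,000 measured probe bound to terbium-labelled receptor.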
(In general: In TR-FRET formats the signal depends on donor and acceptor labels being close together.)

The structures appear in SMILES notation. Square brackets hold non-standard residues; d marks the D form. Peptide text beside a SMILES is read from it.

T1 sequence (P61073 whole entry): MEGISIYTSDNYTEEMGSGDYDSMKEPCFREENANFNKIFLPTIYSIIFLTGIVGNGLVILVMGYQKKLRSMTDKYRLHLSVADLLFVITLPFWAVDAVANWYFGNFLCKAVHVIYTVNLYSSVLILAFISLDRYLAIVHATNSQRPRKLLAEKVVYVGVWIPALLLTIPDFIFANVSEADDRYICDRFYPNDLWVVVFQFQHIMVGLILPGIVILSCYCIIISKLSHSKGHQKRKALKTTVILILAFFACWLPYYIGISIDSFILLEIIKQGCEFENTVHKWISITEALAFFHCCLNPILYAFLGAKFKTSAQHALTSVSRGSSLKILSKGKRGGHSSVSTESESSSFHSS

Consider `CC(C)C[C@H](NC(=O)[C@H](CO)NC(=O)[C@H](CO)NC(=O)[C@H](CCCNC(=N)N)NC(=O)[C@@H](C)NC(=O)[C@H](CO)NC(=O)[C@H](Cc1c[nH]cn1)NC(=O)[C@H](Cc1c[nH]cn1)NC(=O)[C@H](Cc1ccc(O)cc1)NC(=O)[C@H](CCCNC(=N)N)NC(=O)[C@H](CCC(=O)O)NC(=O)[C@@H](N)CC(C)C)C(=O)N[C@@H](CCCNC(=N)N)C(=O)N1CCC[C@H]1C(=O)N[C@@H](Cc1ccc(O)cc1)C(=O)N[C@H](C(=O)O)[C@@H](C)O` [compound 5] (H-LERYHHS[dA]RSSLRPYT-OH; N-terminus and C-terminus assumed), for which the IC50 (usually the concentration that inhibits the measured activity by half) on human CXCR4 [1] was 121 nM. In the case of `CC(C)C[C@H](NC(=O)[C@H](CO)NC(=O)[C@H](CO)NC(=O)[C@H](CCCNC(=N)N)NC(=O)[C@@H](NC(=O)[C@H](CO)NC(=O)[C@H](Cc1c[nH]cn1)NC(=O)[C@H](Cc1c[nH]cn1)NC(=O)[C@H](Cc1ccc(O)cc1)NC(=O)[C@H](CCCNC(=N)N)NC(=O)[C@H](CCCNC(=N)N)NC(=O)[C@@H](N)CC(C)C)C(C)C)C(=O)N[C@@H](CCCNC(=N)N)C(=O)N1CCC[C@H]1C(=O)N[C@@H](Cc1ccc(O)cc1)C(=O)N[C@H](C(=O)N[C@@H](CCCCN)C(=O)O)[C@@H](C)O` [compound 3] (H-LRRYHHSVRSSLRPYTK-OH; N-terminus and C-terminus assumed), the “Percent Inhibition of CXCL12 Mediated CXCR4 Activity” value at human CXCR4 [2] is given as 113.8%. For `CC(C)C[C@H](NC(=O)[C@H](CO)NC(=O)[C@H](CO)NC(=O)[C@H](CCCNC(=N)N)NC(=O)[C@@H](NC(=O)[C@H](CO)NC(=O)[C@H](Cc1c[nH]cn1)NC(=O)[C@H](Cc1c[nH]cn1)NC(=O)[C@H](Cc1ccc(O)cc1)NC(=O)[C@H](CCCNC(=N)N)NC(=O)[C@H](CCC(=O)O)NC(=O)[C@@H](N)CC(C)C)C(C)C)C(=O)N[C@@H](CCCNC(=N)N)C(=O)N1CCC[C@H]1C(=O)N[C@@H](Cc1ccc(O)cc1)C(=O)N[C@H](C(=O)N[C@@H](CCCCN)C(=O)O)[C@@H](C)O` [compound 4] (H-LERYHHSVRSSLRPYTK-OH; N-terminus and C-terminus assumed), at human CXCR4 [3], the “Percent Inhibition of CXCR4/CXCL12 Binding (400 nM peptide)” value is 88%.
